Data published in the supplement of paper PMC11061612.

Legend:
Assay in all cases: Bliss excess, mean over the matrix (fraction); higher = more synergy
Hs-445 (Non-Cancerous) = tested on: Hs-445 (Non-Cancerous)
Method in brief: (§1)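 Bliss excess equals the observed combination effect minus the expected value EA + EB − EA·EB, where EA and EB are the effects of each agent alone. Combination Emax is the second-highest inhibition within the matrix. Inhibition was scaled from CellTiter-Glo 2.0 luminescence, with 0 set by vehicle wells and 1 by blank wells, after 72 hours of two-drug dosing of cells plated in 1536-well plates.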

[1] = tested on: NCI-H2066 (Squamous Cell Lung Carcinoma)
Method in brief: as §1

CAS-1 (Glioblastoma) = tested on: CAS-1 (Glioblastoma)
Method in brief: as §1

[2] = tested on: SISO (Cervical Carcinoma)
Method in brief: as §1

[3] = tested on: SK-MES-1 (Squamous Cell Lung Carcinoma)
Method in brief: as §1

ARH-77 (Non-Cancerous) = tested on: ARH-77 (Non-Cancerous)
Method in brief: as §1

[4] = tested on: BICR22 (Oral Cavity Carcinoma)
Method in brief: as §1

[5] = tested on: NCI-H1581 (Non-Small Cell Lung Carcinoma)
Method in brief: as §1

[6] = tested on: NCI-H1650 (Lung Adenocarcinoma)
Method in brief: as §1

[7] = tested on: ONS-76 (Other Solid Carcinomas)
Method in brief: as §1

[8] = tested on: CCK-81 (Colorectal Carcinoma)
Method in brief: as §1

GI-ME-N (Neuroblastoma) = tested on: GI-ME-N (Neuroblastoma)
Method in brief: as §1

[9] = tested on: COLO-824 (Breast Carcinoma)
Method in brief: as §1

A498 (Kidney Carcinoma) = tested on: A498 (Kidney Carcinoma)
Method in brief: as §1

[10] = tested on: CAPAN-2 (Pancreatic Carcinoma)
Method in brief: as §1

[11] = tested on: TT (Thyroid Gland Carcinoma)
Method in brief: as §1

[12] = tested on: CAL-29 (Bladder Carcinoma)
Method in brief: as §1

[13] = tested on: NCI-H1666 (Lung Adenocarcinoma)
Method in brief: as §1

[14] = tested on: COR-L311 (Small Cell Lung Carcinoma)
Method in brief: as §1

[15] = tested on: SK-MG-1 (Low Grade Glioma)
Method in brief: as §1

Row | SMILES | Bliss excess (Hs-445 (Non-Cancerous)) | Bliss excess [1] | Bliss excess (CAS-1 (Glioblastoma)) | Bliss excess [2] | Bliss excess [3] | Bliss excess (ARH-77 (Non-Cancerous)) | Bliss excess [4] | Bliss excess [5] | Bliss excess [6] | Bliss excess [7] | Bliss excess [8] | Bliss excess (GI-ME-N (Neuroblastoma)) | Bliss excess [9] | Bliss excess (A498 (Kidney Carcinoma)) | Bliss excess [10] | Bliss excess [11] | Bliss excess [12] | Bliss excess [13] | Bliss excess [14] | Bliss excess [15]
1 | COc1cccc(OCCCN)c1-c1cc(Nc2cnc(C#N)cn2)n[nH]1 [Prexasertib] + Cc1cc2ncnn2cc1Nc1ncc2c(n1)n(C1CCOCC1)c(=O)n2C [AZD7648] (first compound max 1 µM, 7x7, partner max 10 µM) | -0.02 | 0.0214 | -0.0053 | 0.0136 | -0.0411 | -0.0015 | 0.0594 | 0.022 | 0.0011 | -0.031 | -0.0134 | 0.107 | -0.01 | -0.0206 | -0.0045 | -0.0144 | -0.0754 | -0.0176 | -0.0289 | -0.0257
2 | C[C@@H](c1ccc2nccn2c1)n1nnc2ncc(-c3cnn(C)c3)nc21 [Savolitinib] + Cc1c2c(nn1C)CSCc1cc(n(C)n1)CSc1cc(c3ccccc3c1)OCCCc1c(C(=O)O)n(C)c3c-2c(Cl)ccc13 [AZD5991] (first compound max 1 µM, 7x7, partner max 1 µM) | -0.0407 | -0.0455 | -0.0584 | -0.0596 | -0.0361 | -0.0181 | -0.0321 | -0.0209 | -0.0634 | -0.0219 | -0.0402 | -0.0778 | -0.0212 | -0.032 | -0.0206 | -0.0102 | -0.0474 | -0.0577 | -0.0246 | -0.0648
